Source: patent US20220016101A1 (ACADIA Pharmaceuticals Inc., priority 2018, published 2022)

System: patients with MDD and an inadequate response to an SSRI or SNRI
Test: Massachusetts General Hospital Sexual Functioning Index (MGH-SFI), Study ACP-103-042
Format: in vivo, human
Text: “Massachusetts General Hospital Sexual Functioning Index (MGH-SFI)” is described, for instance, in Labbate and Lare, 2001, Psychother Psychosom. 70(4):221-225. This is a patient facing questionnaire that quantifies sexual dysfunction into 5 functional domains (“interest in sex,” “sexual arousal,” “ability to achieve orgasm,” “ability to maintain erection” (males only), and “sexual satisfaction”). Patients rate each item using a 6-point scale ranging from 1 (good function) to 6 (poor function). High scores indicate poor sexual functioning. […] The determination of the subject's status and eligibility for randomization in Stage 2 was made in a double-blind manner. […] Sexual functioning was assessed using the Massachusetts General Hospital Sexual Functioning Index or MGH-SFI (Labbate and Lare, 2001, Psychother Psychosom. 70(4):221-225). This is a patient facing questionnaire that quantifies sexual dysfunction into 5 functional domains (“interest in sex,” “sexual arousal,” “ability to achieve orgasm,” “ability to maintain erection” [malesonly], and “sexual satisfaction”). Patients rate each item using a 6-point scale ranging from 1 (good function) to 6 (poor function). The time frame for this scale is the past month. This scale was administered at baseline and Week 5 in both stages of the study. High scores indicate poor sexual functioning. In ACP-103-042 the mean scores for MGH-SFI at Baseline was calculated over all 5 domains for males and the 4 domains for females. For MGH-SFI (follow-up version) at Study Weeks 5 and 10, the mean was calculated in the same way as MGH-SFI at Baseline. […] Tables 10-27 summarize the detailed data of MGH-SFI individual items of the overall study group (Tables 10-15), the subgroup of age of <=50 (Tables 16-21) and the subgroup of age of >50 (Table 21-26). In Tables 9-26, ANCOVA=analysis of covariance; OC=observed cases; LSM=least squares mean; CI=confidence interval; SD=standard deviation; SE=standard error. Stage 1: Baseline=Study Week 0, Week 5=Study Week 5; Stage 2: Baseline=Study Week 5, Week 5=Study Weeks 10. LSM from the stage-specific ANCOVA analysis with the change from baseline as the outcome, treatment group as a factor, and the corresponding Baseline value as a covariate. 2-sided p-value for treatment difference from the stage-specific ANCOVA analysis. An treatment effect size (Cohen's d) is calculated using the formula: Effect Size=Least Square mean difference between PIM and PBO/SD. The corresponding 95% confidence interval for an effect size is calculated based on the theoretical probability distribution of the effect size. […] Tables 10-15 and 28-38 summarize the detailed data of MGH-SFI individual items of the overall study group (Tables 10-15), the female subgroup (Tables 33-37) and the male subgroup (Table 38-43). An treatment effect size (Cohen's d) is calculated using the formula: Effect Size=Least Square mean difference between PIM and PBO/SD. The corresponding 95% confidence interval for an effect size is calculated based on the theoretical probability distribution of the effect size. In Tables 10-15 and 28-38, ANCOVA=analysis of covariance; OC=observed cases; LSM=least squares mean; CI=confidence interval; SD=standard deviation; SE=standard error. Stage 1: Baseline=Study Week 0, Week 5=Study Week 5; Stage 2: Baseline=Study Week 5, Week 5=Study Weeks 10. LSM from the stage-specific ANCOVA analysis with the change from baseline as the outcome, treatment group as a factor, and the corresponding Baseline value as a covariate. 2-sided p-value for treatment difference from the stage-specific ANCOVA analysis. An treatment effect size (Cohen's d) is calculated using the formula: Effect Size=Least Square mean difference between PIM and PBO/SD. The corresponding 95% confidence interval for an effect size is calculated based on the theoretical probability distribution of the effect size.

[1] = Stage 2, Overall Study Group, 34 mg QD + SSRI/SNRI
[2] = Stage 2, Subgroup of <=50 Years
[3] = Stage 2, Subgroup of <=50 Years Old
[4] = Stage 2, Subgroup of <=50 Years Old, 34 mg QD + SSRI/SNRI
[5] = female subgroup, Stage 1 (Study Week 0 to 5), PIM 34 mg
[6] = female subgroup, Stage 1 (Study Week 5), PIM 34 mg
[7] = female subgroup, Stage 1, positive = pimavanserin better than placebo
[8] = female subgroup, Stage 2 (Study Week 5 to 10), PIM 34 mg
[9] = female subgroup, Stage 2 (Study Week 10), PIM 34 mg
[10] = female subgroup, Stage 2, positive = pimavanserin better than placebo

SMILES: CC(C)COc1ccc(CNC(=O)N(Cc2ccc(F)cc2)C2CCN(C)CC2)cc1 [pimavanserin, N-(4-Fluorophenylmethyl)-N-(1-methylpiperidin-4-yl)-N′-(4-(2-methylpropyloxy)phenylmethyl)carbamide]
- MGH-SFI 05: Overall Sexual Satisfaction, Effect Size (Cohen's d) (Stage 2, Overall Study Group): 0.404
- MGH-SFI 05: Overall Sexual Satisfaction, Week 5 Median (Stage 2, Overall Study Group): 4.5
- MGH-SFI 06: Overall Improvement Since Last Medication Change, Effect Size (Cohen's d) (Stage 2, Overall Study Group): 0.227
- MGH-SFI 06: Overall Improvement Since Last Medication Change, Week 5 Median (Stage 2, Overall Study Group): 4.0
- MGH-SFI 01: Interest in Sex, Week 5 Mean (SE) [1]: 4.1 (0.28)
- MGH-SFI 02: Ability to Get Sexually Aroused or Excited, Week 5 Mean (SE) [1]: 4.2 (0.27)
- MGH-SFI 03: Ability to Achieve Orgasm, Week 5 Mean (SE) [1]: 4.3 (0.32)
- MGH-SFI 04: (Men) Ability to Get and Maintain an Erection, Week 5 Mean (SE) [1]: 3.1 (0.54)
- MGH-SFI 05: Overall Sexual Satisfaction, Week 5 Mean (SE) [1]: 4.1 (0.33)
- MGH-SFI 06: Overall Improvement Since Last Medication Change, Week 5 Mean (SE) [1]: 3.6 (0.25)
- MGH-SFI 01: Interest in Sex, Change from Baseline to Week 5 Mean (SE) [2]: −0.3 (0.21)
- MGH-SFI 01: Interest in Sex, Change from Baseline to Week 5 Median [2]: 0.0
- MGH-SFI 01: Interest in Sex, Effect Size (Cohen's d) [2]: 0.081
- MGH-SFI 01: Interest in Sex, Week 5 Median [2]: 4.0
- MGH-SFI 02: Ability to Get Sexually Aroused or Excited, Change from Baseline to Week 5 Mean (SE) [3]: −0.3 (0.25)
- MGH-SFI 02: Ability to Get Sexually Aroused or Excited, Change from Baseline to Week 5 Median [3]: −1.0
- MGH-SFI 02: Ability to Get Sexually Aroused or Excited, Effect Size (Cohen's d) [3]: 0.017
- MGH-SFI 02: Ability to Get Sexually Aroused or Excited, Week 5 Median [3]: 4.0
- MGH-SFI 03: Ability to Achieve Orgasm, Change from Baseline to Week 5 Mean (SE) [3]: −0.3 (0.25)
- MGH-SFI 03: Ability to Achieve Orgasm, Change from Baseline to Week 5 Median [3]: 0.0
- MGH-SFI 03: Ability to Achieve Orgasm, Effect Size (Cohen's d) [3]: 0.449
- MGH-SFI 03: Ability to Achieve Orgasm, Week 5 Median [3]: 4.0
- MGH-SFI 02: Ability to Get Sexually Aroused or Excited, Week 5 Mean (SE) [4]: 4.1 (0.33)
- MGH-SFI 03: Ability to Achieve Orgasm, Week 5 Mean (SE) [4]: 4.1 (0.40)
- MGH-SFI 01: Interest in Sex, Week 5 Mean (SE) (Stage 2, Subgroup of <=50 Years, 34 mg QD + SSRI/SNRI): 3.9 (0.36)
- MGH-SFI Items effect sizes, mean change from baseline to Week 5 vs placebo (female patients): > 0.5
- MGH-SFI 01: Interest in Sex, Change from Baseline to Week 5 Mean (SE) [5]: −0.9 (0.21)
- MGH-SFI 01: Interest in Sex, Change from Baseline to Week 5 Median [5]: −1.0
- MGH-SFI 02: Ability to Get Sexually Aroused or Excited, Change from Baseline to Week 5 Mean (SE) [5]: −0.8 (0.17)
- MGH-SFI 02: Ability to Get Sexually Aroused or Excited, Change from Baseline to Week 5 Median [5]: −1.0
- MGH-SFI 03: Ability to Achieve Orgasm, Change from Baseline to Week 5 Mean (SE) [5]: −1.2 (0.27)
- MGH-SFI 03: Ability to Achieve Orgasm, Change from Baseline to Week 5 Median [5]: 0.0
- MGH-SFI 05: Overall Sexual Satisfaction, Change from Baseline to Week 5 Mean (SE) [5]: −0.9 (0.26)
- MGH-SFI 05: Overall Sexual Satisfaction, Change from Baseline to Week 5 Median [5]: 0.0
- MGH-SFI 01: Interest in Sex, Week 5 Mean (SE) [6]: 3.7 (0.29)
- MGH-SFI 01: Interest in Sex, Week 5 Median [6]: 4.0
- MGH-SFI 02: Ability to Get Sexually Aroused or Excited, Week 5 Mean (SE) [6]: 3.7 (0.28)
- MGH-SFI 02: Ability to Get Sexually Aroused or Excited, Week 5 Median [6]: 3.5
- MGH-SFI 03: Ability to Achieve Orgasm, Week 5 Mean (SE) [6]: 3.8 (0.28)
- MGH-SFI 03: Ability to Achieve Orgasm, Week 5 Median [6]: 4.0
- MGH-SFI 05: Overall Sexual Satisfaction, Week 5 Mean (SE) [6]: 3.8 (0.29)
- MGH-SFI 05: Overall Sexual Satisfaction, Week 5 Median [6]: 3.5
- MGH-SFI 06: Overall Improvement Since Last Medication Change, Week 5 Mean (SE) [6]: 3.2 (0.17)
- MGH-SFI 06: Overall Improvement Since Last Medication Change, Week 5 Median [6]: 4.0
- MGH-SFI 01: Interest in Sex, Effect Size (Cohen's d) [7]: 0.561
- MGH-SFI 02: Ability to Get Sexually Aroused or Excited, Effect Size (Cohen's d) [7]: 0.616
- MGH-SFI 03: Ability to Achieve Orgasm, Effect Size (Cohen's d) [7]: 0.749
- MGH-SFI 05: Overall Sexual Satisfaction, Effect Size (Cohen's d) [7]: 0.627
- MGH-SFI 06: Overall Improvement Since Last Medication Change, Effect Size (Cohen's d) [7]: 0.634
- MGH-SFI 01: Interest in Sex, Change from Baseline to Week 5 Mean (SE) [8]: −0.3 (0.17)
- MGH-SFI 01: Interest in Sex, Change from Baseline to Week 5 Median [8]: 0.0
- MGH-SFI 02: Ability to Get Sexually Aroused or Excited, Change from Baseline to Week 5 Mean (SE) [8]: −0.3 (0.20)
- MGH-SFI 02: Ability to Get Sexually Aroused or Excited, Change from Baseline to Week 5 Median [8]: 0.0
- MGH-SFI 03: Ability to Achieve Orgasm, Change from Baseline to Week 5 Mean (SE) [8]: −0.3 (0.20)
- MGH-SFI 03: Ability to Achieve Orgasm, Change from Baseline to Week 5 Median [8]: 0.0
- MGH-SFI 05: Overall Sexual Satisfaction, Change from Baseline to Week 5 Mean (SE) [8]: −0.4 (0.26)
- MGH-SFI 05: Overall Sexual Satisfaction, Change from Baseline to Week 5 Median [8]: 0.0
- MGH-SFI 01: Interest in Sex, Week 5 Mean (SE) [9]: 4.4 (0.34)
- MGH-SFI 01: Interest in Sex, Week 5 Median [9]: 5.0
- MGH-SFI 02: Ability to Get Sexually Aroused or Excited, Week 5 Mean (SE) [9]: 4.5 (0.32)
- MGH-SFI 02: Ability to Get Sexually Aroused or Excited, Week 5 Median [9]: 5.0
- MGH-SFI 03: Ability to Achieve Orgasm, Week 5 Mean (SE) [9]: 4.6 (0.38)
- MGH-SFI 03: Ability to Achieve Orgasm, Week 5 Median [9]: 5.0
- MGH-SFI 05: Overall Sexual Satisfaction, Week 5 Mean (SE) [9]: 4.6 (0.38)
- MGH-SFI 05: Overall Sexual Satisfaction, Week 5 Median [9]: 5.0
- MGH-SFI 06: Overall Improvement Since Last Medication Change, Week 5 Mean (SE) [9]: 3.6 (0.29)
- MGH-SFI 06: Overall Improvement Since Last Medication Change, Week 5 Median [9]: 4.0
- MGH-SFI 01: Interest in Sex, Effect Size (Cohen's d) [10]: 0.073
- MGH-SFI 02: Ability to Get Sexually Aroused or Excited, Effect Size (Cohen's d) [10]: −0.064
- MGH-SFI 03: Ability to Achieve Orgasm, Effect Size (Cohen's d) [10]: 0.132
